Marks after values point to notes of the source that are not given here.
Columns and labels:
CYP2C8 [1] = target: T1, CYP2C8 (Homo sapiens, UniProt P10632); experiment: in vitro; conditions: pH 7.4
T1 sequence (P10632 1-490): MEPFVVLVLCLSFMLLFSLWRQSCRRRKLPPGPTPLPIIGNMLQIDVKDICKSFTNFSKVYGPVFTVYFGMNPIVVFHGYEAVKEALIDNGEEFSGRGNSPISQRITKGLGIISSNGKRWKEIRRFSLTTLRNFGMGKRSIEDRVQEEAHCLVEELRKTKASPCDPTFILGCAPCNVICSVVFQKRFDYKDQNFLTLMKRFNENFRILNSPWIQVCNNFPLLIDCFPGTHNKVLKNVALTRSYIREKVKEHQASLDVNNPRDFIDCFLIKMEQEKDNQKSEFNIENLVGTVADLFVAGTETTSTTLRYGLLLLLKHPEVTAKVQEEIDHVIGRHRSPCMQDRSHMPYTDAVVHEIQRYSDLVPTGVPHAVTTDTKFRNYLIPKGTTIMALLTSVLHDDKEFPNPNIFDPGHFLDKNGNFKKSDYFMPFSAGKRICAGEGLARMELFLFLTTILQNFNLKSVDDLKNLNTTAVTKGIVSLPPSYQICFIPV

CYP2C9 = CYP2C9 (Homo sapiens, UniProt P11712); experiment: in vitro
Sequence of CYP2C9 (P11712 whole entry): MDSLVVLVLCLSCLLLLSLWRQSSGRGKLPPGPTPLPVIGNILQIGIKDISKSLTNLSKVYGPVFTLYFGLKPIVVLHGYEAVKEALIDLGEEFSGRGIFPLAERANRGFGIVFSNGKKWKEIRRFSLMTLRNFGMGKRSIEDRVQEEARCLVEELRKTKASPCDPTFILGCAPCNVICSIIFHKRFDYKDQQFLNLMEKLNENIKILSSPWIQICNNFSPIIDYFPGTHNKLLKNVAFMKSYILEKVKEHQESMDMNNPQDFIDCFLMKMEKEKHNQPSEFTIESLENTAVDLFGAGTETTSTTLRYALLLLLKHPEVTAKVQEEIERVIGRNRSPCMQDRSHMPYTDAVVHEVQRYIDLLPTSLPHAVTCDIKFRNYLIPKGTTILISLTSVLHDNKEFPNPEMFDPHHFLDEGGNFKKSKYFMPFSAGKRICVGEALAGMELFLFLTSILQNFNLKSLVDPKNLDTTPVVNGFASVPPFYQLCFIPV

CYP2B1 = target: T2, CYP2B1 (Rattus norvegicus, UniProt P00176)
T2 sequence (P00176 1-491): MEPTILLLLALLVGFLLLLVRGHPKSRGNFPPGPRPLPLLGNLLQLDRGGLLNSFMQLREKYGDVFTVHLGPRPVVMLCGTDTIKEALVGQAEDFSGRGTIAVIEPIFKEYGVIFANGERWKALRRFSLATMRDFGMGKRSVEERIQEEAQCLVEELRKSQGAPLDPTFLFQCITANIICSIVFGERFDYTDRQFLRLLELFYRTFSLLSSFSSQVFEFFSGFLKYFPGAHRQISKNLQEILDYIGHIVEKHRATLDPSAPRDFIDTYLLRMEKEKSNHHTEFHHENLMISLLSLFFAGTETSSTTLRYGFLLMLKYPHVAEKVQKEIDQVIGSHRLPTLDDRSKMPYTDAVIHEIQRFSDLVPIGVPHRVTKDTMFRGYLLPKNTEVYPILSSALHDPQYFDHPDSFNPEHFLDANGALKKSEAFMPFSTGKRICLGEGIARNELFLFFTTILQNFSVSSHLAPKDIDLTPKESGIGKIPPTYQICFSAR

CYP2E1 = CYP2E1 (Homo sapiens, UniProt P05181); experiment: in vitro
Sequence of CYP2E1 (P05181 whole entry): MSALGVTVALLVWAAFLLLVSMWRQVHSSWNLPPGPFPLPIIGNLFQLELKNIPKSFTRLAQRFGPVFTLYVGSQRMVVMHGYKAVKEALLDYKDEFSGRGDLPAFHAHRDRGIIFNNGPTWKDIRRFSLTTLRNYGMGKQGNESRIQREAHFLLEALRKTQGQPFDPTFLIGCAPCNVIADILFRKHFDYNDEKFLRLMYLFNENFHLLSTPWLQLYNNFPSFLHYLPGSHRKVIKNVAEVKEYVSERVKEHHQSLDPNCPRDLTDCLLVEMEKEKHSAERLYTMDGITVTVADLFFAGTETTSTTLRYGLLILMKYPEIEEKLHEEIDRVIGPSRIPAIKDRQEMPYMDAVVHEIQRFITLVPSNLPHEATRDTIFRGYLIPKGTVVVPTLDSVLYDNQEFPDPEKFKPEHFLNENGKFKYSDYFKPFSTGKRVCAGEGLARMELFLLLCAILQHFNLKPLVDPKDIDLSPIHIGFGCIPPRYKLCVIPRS

CYP1A2 = target: T3, CYP1A2 (Homo sapiens, UniProt P05177); experiment: Regioselectivity and inter-/intramolecular KIE for 4-methylanisole (Table 15); type: in vitro ADME
T3 sequence (P05177 1-516): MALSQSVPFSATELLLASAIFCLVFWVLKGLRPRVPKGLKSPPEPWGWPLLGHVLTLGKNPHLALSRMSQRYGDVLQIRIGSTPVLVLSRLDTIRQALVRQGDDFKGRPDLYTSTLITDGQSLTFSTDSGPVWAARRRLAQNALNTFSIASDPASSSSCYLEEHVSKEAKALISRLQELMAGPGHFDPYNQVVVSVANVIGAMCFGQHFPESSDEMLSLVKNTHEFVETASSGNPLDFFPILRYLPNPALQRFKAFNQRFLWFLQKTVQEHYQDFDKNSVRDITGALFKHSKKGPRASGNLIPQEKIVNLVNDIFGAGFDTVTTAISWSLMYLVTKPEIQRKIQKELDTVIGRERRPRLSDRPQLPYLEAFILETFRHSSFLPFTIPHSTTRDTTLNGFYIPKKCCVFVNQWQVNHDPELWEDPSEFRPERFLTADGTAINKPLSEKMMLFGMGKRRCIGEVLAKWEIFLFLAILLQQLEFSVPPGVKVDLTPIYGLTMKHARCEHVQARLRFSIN

CYP2C8 [2] = target: T1, CYP2C8; experiment: as above; type: in vitro ADME
CYP2B6 = target: T4, CYP2B6 (Homo sapiens, UniProt P20813); experiment: as above; type: in vitro ADME
T4 sequence (P20813 1-491): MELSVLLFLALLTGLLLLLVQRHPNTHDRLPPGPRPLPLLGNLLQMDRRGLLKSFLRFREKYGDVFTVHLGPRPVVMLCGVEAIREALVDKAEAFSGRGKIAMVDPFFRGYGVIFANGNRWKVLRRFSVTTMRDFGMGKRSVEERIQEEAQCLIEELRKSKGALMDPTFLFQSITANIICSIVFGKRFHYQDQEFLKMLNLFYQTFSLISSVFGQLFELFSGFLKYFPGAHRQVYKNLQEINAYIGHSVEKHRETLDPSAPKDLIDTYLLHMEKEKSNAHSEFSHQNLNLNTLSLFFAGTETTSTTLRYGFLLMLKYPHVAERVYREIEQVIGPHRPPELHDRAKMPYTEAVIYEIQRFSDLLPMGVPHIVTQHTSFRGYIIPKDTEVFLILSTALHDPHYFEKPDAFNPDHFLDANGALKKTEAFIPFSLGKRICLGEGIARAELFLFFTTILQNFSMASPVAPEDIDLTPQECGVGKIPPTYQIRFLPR

[3] = pH 7.4, Regioselectivity BzH:Arom
[4] = pH 7.4, Regioselectivity BzH:ODAlk

COc1ccccc1C [o-Methylanisole, o-methylanisole]
selectivity ratio (CYP2C8 [1]): 1 | selectivity ratio (CYP2C9; [3]): 1.6 | selectivity ratio (CYP2C9; [4]): 2.5 | INTER KIE (combined intermolecular competitive KIE) (CYP2B1): 9.3 | Intramolecular KIE (kH/kD) (CYP2B1): 5.78 | P, calculated primary KIE (CYP2B1): 6.8 | S, calculated secondary KIE (CYP2B1): 1.2 | Metabolite profile, Phenol (CYP2B1; rat, pH 7.4): 63 Mol-% | Metabolite profile, o-CR (CYP2B1; rat, pH 7.4): 18 Mol-% | Metabolite profile, o-MBA (CYP2B1; rat, pH 7.4): 19 Mol-% | Ratio of ring hydroxylation para to the methoxy group to ODAlk (CYP2B1; rat, pH 7.4): 3.5 | nmol 4M3MPh (CYP2B1; rat, pH 7.4): 9.1* nmol | nmol TP (CYP2B1; rat, pH 7.4): 13* nmol | nmol o-CR (CYP2B1; rat, pH 7.4): 2.3* nmol | nmol o-MBA (CYP2B1; rat, pH 7.4): 2.37* nmol | selectivity ratio (CYP2E1; [3]): 0.48 | selectivity ratio (CYP2E1; [4]): 1.6

COc1ccc(C)cc1 [p-Methylanisole, p-methylanisole]
Intermolecular KIE (CYP1A2; CYP1A2 (Table 15)): 5.94 | Intramolecular KIE (CYP1A2; CYP1A2 (Table 15)): 3.79 | δΔG^† (CYP1A2; CYP1A2, benzylic oxidation vs O-dealkylation): 1.82 kcal/mol | Intermolecular KIE (CYP2C8 [2]; CYP2C8 (Table 15)): 3.60 | Intramolecular KIE (CYP2C8 [2]; CYP2C8 (Table 15)): 3.60 | δΔG^† (CYP2C8 [2]; CYP2C8, benzylic oxidation vs O-dealkylation): 1.32 kcal/mol | INTER KIE (combined intermolecular competitive KIE) (CYP2B1): 5.8 | Intramolecular KIE (kH/kD) (CYP2B1): 3.69 | P, calculated primary KIE (CYP2B1): 4.3 | S, calculated secondary KIE (CYP2B1): 1.16 | nmol p-CR (CYP2B1; rat, pH 7.4): 2.0* nmol | nmol p-MBA (CYP2B1; rat, pH 7.4): 4.2* nmol | nmol total TP (CYP2B1; rat, pH 7.4): 6.2* nmol | Intermolecular KIE (CYP2B6; CYP2B6 (Table 15)): 7.60 | Intramolecular KIE (CYP2B6; CYP2B6 (Table 15)): 4.58 | δΔG^† (CYP2B6; CYP2B6, benzylic oxidation vs O-dealkylation): 0.86 kcal/mol
